Results: article PMC9147645, “Food-Derived β-Carboline Alkaloids Ameliorate Lipid Droplet Accumulation in Human Hepatocytes” (Pharmaceuticals, 2022)
Read-outs that look alike come from different tables or passages of the source.

Key:
HepG2 cells [1] = test: Cytotoxicity / lipocytotoxicity assay (CCK-8); format: cell-based; conditions: HepG2
Experimental: HepG2 cells were purchased from the American Type Culture Collection (ATCC) (Manassas, VA, USA). High-glucose DMEM containing 10% heat-inactivated FBS and 1% penicillin–streptomycin was maintained under a humidified atmosphere at 37 °C with 5% CO2, as indicated in the Supplementary Materials. HepG2 cells (1.5 × 10^4/well) in DMEM supplemented with 10% FBS were seeded into a 96-well plate. A cytotoxicity assay was performed according to the manufacturer’s protocol using CCK-8 (Dojindo Molecular Technologies), as indicated in the Supplementary Materials (Materials and Methods). […]
2 1.2. Cytotoxicity assay […] HepG2 cells (1.5 × 10^4/well) in DMEM supplemented with 10% FBS were under reduced pressure, and H2O (25 ml) was added. Then the solution was seeded into a 96-well plate. The cytotoxicity assay was done using CCK-8 extracted with AcOEt after adjusted to 9–10 with aq. NaOH solution. The organic (Dojindo Molecular Technologies) according to the manufacturer's protocol. […]
Compounds 1 and 3. To a stirred soln. Compound 10 (218 mg, 1.00 mmol), 5- Technologies, Rockville, USA) according to the manufacturer ’sinstructions. Cell Acetoxymethylfurfural (1, 168 mg, 1.00 mmol) and Nano CuO (7.955 mg, 0.1 suspension (100 μl/well) was inoculated in a 96-well plate (Iwaki, Japan), and mmol) were added 6 ml of DMF. The mixture was stirred at 90℃ for 16 h. The pH once monolayers were observed, treatments were added (n = 3 per each of the aqueous solution was adjusted to 9–10 with aq NaOH solution after adding treatment). Cells were then pre-incubated with the treatments for 24 h before H O. After extracting the solution with AcOEt, the organic layer was washed with assay to determine cell viability.Absorbance was measured at 450 nm using a 2 plate reader (PerkinElmer-ARVO-MX-ID 10533234, Japan). […]
[5-(hydroxymethyl)-2-furanyl]-1H-pyrido[3,4-b]indole-3-carboxylic acid (2, CAS culture medium was removed from each dish, and cells were washed Registry Number 896466-77-6); flazine methyl ester acetate (3, CAS Registry and rinsed with 1× PBS. Cells were then fixed for 20 min in 10% formalin and Number 104537-95-3); flazin (4, CAS Registry Number 100041-05-2); washed twice using PBS. Then, Oil Red O dye was added to the dishes and incubated for 20 min. Finally, the dye was removed from each dish and cells 5

HepG2 cells [2] = test: LD fluorescence staining assay (Oil Red O / Hoechst); format: cell-based, human; conditions: 200 μM, HepG2 loaded with OA, Oil Red O and Hoechst 33,342
Experimental: LD fluorescence staining assay: The staining was performed with modifications based on our previous report. HepG2 cells were seeded in 35 mm glass bottom dishes at 4.0 × 10^5/plate. After 24 h of incubation, OA and all samples were processed for 24 h. Oil Red O staining was performed, then the Hoechst reagent solution mixed with PBS was added and incubated in the dark for 25 min. Images were then captured using a BZ-9000 fluorescence microscope (Keyence Co., Ltd., Osaka, Japan).

[3] = test system: sterol regulatory element-binding protein 1 (SREBP1); test: Gene expression, real-time PCR; format: cell-based, human; conditions: HepG2 + 0.25 mM OA, 200 and 400 μM compound, 24 h, normalized to GAPDH
Experimental: (§1) To better understand how the supplementation of compounds 2 and 4 during LDA in HepG2 cells affects lipolysis and lipogenesis, we performed gene expression analysis using real-time PCR under the following conditions. Briefly, HepG2 cells (2.0 × 10^5/well) were seeded in 24-well plates (n = 6 per treatment). After 24 h, the cells were treated with PBS, 0.25 mM OA only, 0.25 mM OA plus 200 and 400 μM compound 2, or 0.25 mM OA plus 200 and 400 μM compound 4. After another 24 h, RNA extraction and complementary DNA synthesis were performed, according to the manufacturer’s instructions and a previous study. The sequences of the primers used are shown in the Supplementary Materials, Table S1: adipose triglyceride lipase (ATGL), diacylglycerol O-acyltransferase 1 (DGAT1), sterol regulatory element-binding protein 1 (SREBP1), fatty acid synthase (FASN), stearoyl-CoA desaturase 1 (SCD1), and glyceraldehyde-3-phosphate dehydrogenase (GAPDH). PCR was performed using a CFX 96 Real-Time PCR Detection System (Bio-Rad Laboratories Inc., Hercules, CA, USA) under the following conditions: 95 °C for 30 s, followed by 40 cycles at 95 °C for 5 s, 60 °C for 5 s, and 72 °C for 10 s. All gene expression levels were analyzed using the ΔΔCt method and normalized to GAPDH. Data were represented as relative expression based on that of the control group.

[4] = test system: adipose triglyceride lipase (ATGL); test: Gene expression, real-time PCR; format: cell-based, human; conditions: HepG2 + 0.25 mM OA, 200 and 400 μM compound, 24 h, normalized to GAPDH
Experimental: as §1

[5] = test system: stearoyl-CoA desaturase 1 (SCD1); test: Gene expression, real-time PCR; format: cell-based, human; conditions: HepG2 + 0.25 mM OA, 200 and 400 μM compound, 24 h, normalized to GAPDH
Experimental: as §1

[6] = test system: fatty acid synthase (FASN); test: Gene expression, real-time PCR; format: cell-based, human; conditions: HepG2 + 0.25 mM OA, 200 and 400 μM compound, 24 h, normalized to GAPDH
Experimental: as §1

[7] = test system: diacylglycerol O-acyltransferase 1 (DGAT1); test: Gene expression, real-time PCR; format: cell-based, human; conditions: HepG2 + 0.25 mM OA, 200 and 400 μM compound, 24 h, normalized to GAPDH
Experimental: as §1

HepG2 cells [8] = test: Accumulated triacylglycerol species by LC-MS/MS in oleic acid-loaded cells; format: cell-based, human; conditions: for Number of accumulated triacylglycerol molecular species inhibited: 24 h of treatment; for inhibition at 200 µM: Homo sapiens, HepG2, 24 h
Experimental: Tested compounds (200 μM) were added to cultured HepG2 cells loaded with oleic acid and incubated at 37 °C for 24 h, as previously described. Centrifuged samples were analyzed using an LC/MS orbitrap. Chromatographic separation was performed using a Shimadzu Prominence UHPLC system with a binary solvent delivery system and a standard auto-sampler. An Atlantis® T3 column (2.1 × 150 mm, 3 μm, Waters) was used for separation, with a flow rate of 200 μL/min. The mobile phase consisted of A: 10 mM ammonium acetate solution; B: isopropanol; and C: methanol. Positive mode: 0–1 min, 6% B and 90% C; 1–10 min, 83% B and 15% C; 10–19 min, 83% B and 15% C; 19–19.5 min, 6% B and 90% C; 19.5–22 min, 6% B and 90% C. The injection volume was 10 μL. The column temperature was maintained at 40 °C. The LC/MS parameters were as previously described.

[9] = 24 h, HepG2 + OA, vs control (+OA), read-out: Inhibition of accumulated TAG 48:4
[10] = 24 h, HepG2 + OA, vs control (+OA), read-out: Inhibition of accumulated TAG 50:3
[11] = 24 h, HepG2 + OA, vs control (+OA), read-out: Inhibition of accumulated TAG 50:5
[12] = 24 h, HepG2 + OA, vs control (+OA), read-out: Inhibition of accumulated TAG 52:4
[13] = 24 h, HepG2 + OA, vs control (+OA), read-out: Inhibition of accumulated TAG 52:5
[14] = 24 h, HepG2 + OA, vs control (+OA), read-out: Inhibition of accumulated TAG 52:6
[15] = 24 h, HepG2 + OA, vs control (+OA), read-out: Inhibition of accumulated TAG 52.7
[16] = 24 h, HepG2 + OA, vs control (+OA), read-out: Inhibition of accumulated TAG 54:7
[17] = 24 h, HepG2 + OA, vs control (+OA), read-out: Inhibition of accumulated TAG 56.9

Row | SMILES | Cytotoxicity (in words) (HepG2 cells [1]) | LDs in fluorescence image (HepG2 cells [2]) | SREBP1 gene expression [3] | ATGL gene expression [4] | SCD1 gene expression [5] | FASN gene expression [6] | DGAT1 gene expression [7] | Number of accumulated triacylglycerol molecular species inhibited (HepG2 cells [8]; 200 μM, HepG2 + OA) | inhibition at 200 µM (HepG2 cells [8]; [9]) [%] | inhibition at 200 µM (HepG2 cells [8]; [10]) [%] | inhibition at 200 µM (HepG2 cells [8]; [11]) [%] | inhibition at 200 µM (HepG2 cells [8]; [12]) [%] | inhibition at 200 µM (HepG2 cells [8]; [13]) [%] | inhibition at 200 µM (HepG2 cells [8]; [14]) [%] | inhibition at 200 µM (HepG2 cells [8]; [15]) [%] | inhibition at 200 µM (HepG2 cells [8]; [16]) [%] | inhibition at 200 µM (HepG2 cells [8]; [17]) [%] | further results
1 | O=C(O)C1Cc2c([nH]c3ccccc23)C(c2ccc(CO)o2)N1 (stereo not drawn) [Compound 2, 1,2,3,4-tetrahydro-1-(5-(hydroxymethyl)-2-furanyl)-9H-pyrido [3,4-b]indole-3-carboxylic acid] | no cytotoxicity | significantly inhibited | significantly downregulated | upregulated | did not induce a significant reduction | significantly downregulated | no change | twenty-five | 23.4 | 26.6 | 33.7 | 28.1 | 9.5 | 33.4 | 35.1 | 30 | 28.3 | inhibition at 200 µM (HepG2 cells [8]; 24 h, HepG2 + OA, vs control (+OA), read-out: Inhibition of accumulated TAG 56:10): 45.9%; inhibition at 200 µM (HepG2 cells [8]; 24 h, HepG2 + OA, vs control (+OA), read-out: Inhibition of accumulated TAG 58:12): 50 to 74%; inhibition at 200 µM (HepG2 cells [8]; 24 h, except TAGs 58:12, 46:3, 54:6, and 56:7, read-out: Inhibition of most of the accumulated triacylglycerol molecular species): 25 to 49%
2 | O=C(O)c1cc2c([nH]c3ccccc32)c(-c2ccc(CO)o2)n1 [Compound 4, flazin] | no cytotoxicity | significantly inhibited | strongly downregulated | upregulated | strongly downregulated | strongly downregulated | no change | twenty | 39 | 49.4 | 72.5 | 51.2 | 49.1 | 65.7 | 70.7 | 66.3 | 71.4 | Inhibition of TAGs 52:6; 52:7; 56:10; 56:9; and 62:4 (in words) (HepG2 cells [8]; 200 μM, 24 h, HepG2 + OA): total inhibition; inhibition at 200 µM (HepG2 cells [8]; 24 h, HepG2 + OA, vs control (+OA), read-out: Inhibition of accumulated TAG 46:3): 28.9%; inhibition at 200 µM (HepG2 cells [8]; 24 h, HepG2 + OA, vs control (+OA), read-out: Inhibition of accumulated TAG 54:6): 49.4%; inhibition at 200 µM (HepG2 cells [8]; 24 h, HepG2 + OA, vs control (+OA), read-out: Inhibition of accumulated TAG 56:7): 49.1%; inhibition at 200 µM (HepG2 cells [8]; 24 h, HepG2 + OA, vs control (+OA), read-out: Inhibition of accumulated TAG 56:8): 58.1%; inhibition at 200 µM (HepG2 cells [8]; 24 h, HepG2 + OA, vs control (+OA), read-out: Inhibition of accumulated TAG 58:11): 65.2%; inhibition at 200 µM (HepG2 cells [8]; 24 h, HepG2 + OA, vs control (+OA), read-out: Inhibition of accumulated TAG 60:12): 66.4%; inhibition at 200 µM (HepG2 cells [8]; 24 h, HepG2 + OA, vs control (+OA), read-out: Inhibition of accumulated TAG 62:14): 76.4%
